Measured values taken from patent US4250255A, “Assay method for isoenzyme activity” (Eastman Kodak Company, priority 1977, dated 1981).
pIC50: −log10 of the molar value. Where a name gives a salt, the structure may show the parent alone. Read-outs that look alike come from different tables or passages of the source.

Legend:
[1] = test system: LD1 and LD5; experiment: Screening of amphiphiles for ability to discriminate between LD1 and LD5; details: for Effectiveness (LDH isoenzyme inhibition specificity, LD1 vs LD5): range of amphiphile concentrations, relative activity vs buffer
Experimental: A series of solutions was prepared covering a range of concentrations for each amphiphile to be tested. The activities of both LD1 and LD5 were determined in the presence of the various concentrations of each amphiphile and compared with enzyme activities in buffer (relative activity).
Enzyme activity in the presence and absence of amphiphile was measured by the following procedure: Stock solutions of NADH (4 mM) and pyruvate (40 mM) were prepared daily in 30 mM sodium phosphate buffer, pH 7.4. Enzyme solutions were prepared daily by withdrawing 5 μl of the stock enzyme solutions with a Hamilton syringe and diluting to 5 ml with 30 mM sodium phosphate buffer. (The resulting solution contains approximately 5 U of enzyme/ml.) The enzyme assay was run by pipetting 2.7 ml of buffer or buffer surfactant solution into a 10 mm path length quartz cuvette, and 100 μl each of NADH and pyruvate stock solutions were added. […] Enzyme solution was added with good mixing; the absorbance decrease at 340 nm was measured as a function of time. The rate of the reaction was determined by measuring the slope of the initial absorbance decrease, i.e., within the first 50 seconds of the reaction.

[2] = test system: human LD1, LD2 and LD3; experiment: LDH assay with human serum sample containing LD1, LD2 and LD3; format: biochemical; details: CTAB 0.002-0.004 M; 25 μl serum; FIG. 13
Experimental: (§1) The assay for LDH activity in both the absence and presence of surfactant was conducted as follows. […] The resulting solution contains approximately 5 units/ml. […] To the equilibrated solution […]. of the enzyme solution was added, and the cuvette was rapidly shaken while covering the top of the cuvette with a small piece of Parafilm® and placed back into the spectrophotometer.
(§2) Pooled human serum, kept frozen until ready for use, was raised to pH 11.5 until all LDH activity was destroyed. The pH was then adjusted to 7.4 and the serum was again assayed for LDH activity to ensure that no LDH had been reactivated. A specific human LDH isoenzyme (obtained from liver homogenate or red blood cell) was then added to the pool to give an enzyme concentration of ~100 U/l. The spiked serum samples were refrigerated between uses and respiked when necessary. Fresh serum was prepared weekly.
(§3) 8. The assay method used is the same as described above for Examples 1-12, except that the test samples consisted of 25-30 μl of serum instead of 100 μl of aqueous enzyme solution.

[3] = test system: LD5; experiment: LDH activity assay with amphiphile, LDH isoenzymes; format: biochemical, porcine; details: even at 10 mM; LD5 from rabbit and hog show almost identical profiles; FIG. 5
Experimental: (§4) 3. Beef heart LDH (Sigma Chemical Co., Type III), rabbit muscle LDH (Sigma Chemical Co., Type V) and porcine LDH, LD1, LD2, LD3, LD4 and LD5 in the form of ammonium sulfate suspensions were used for these examples.
as §1
(§5) Amphiphile solutions were prepared by weighing out a given amount of amphiphile, e.g., 100 mg, and preparing a stock solution in 30 mM sodium phosphate buffer in 100 ml. volumetric flask. Solutions of lower amphiphile concentration were prepared by making the appropriate dilutions from the stock solution.

[4] = test system: LD1; experiment: LDH activity assay with amphiphile, LDH isoenzymes; format: biochemical, porcine; details: about 10 mM CTAB; FIG. 5
Experimental: as §4, §1, §5

[5] = molecular target: T1, mMDH (Sus scrofa, UniProt P00346); experiment: Assay for MDH (oxalacetic acid + NADH, 340 nm); format: biochemical, porcine
T1 construct: Porcine cMDH and mMDH were used as ammonium sulfate suspensions
T1 sequence (P00346 25-338): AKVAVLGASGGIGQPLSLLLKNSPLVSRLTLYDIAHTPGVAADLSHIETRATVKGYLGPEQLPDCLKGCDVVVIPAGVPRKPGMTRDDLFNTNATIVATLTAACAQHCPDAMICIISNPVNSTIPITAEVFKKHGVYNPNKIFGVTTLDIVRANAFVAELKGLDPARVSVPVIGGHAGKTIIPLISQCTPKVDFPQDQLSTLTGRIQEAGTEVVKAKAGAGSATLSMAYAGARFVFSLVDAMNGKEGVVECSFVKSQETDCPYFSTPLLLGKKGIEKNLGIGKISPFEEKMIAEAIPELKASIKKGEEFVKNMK
Experimental: (§6) 1. Porcine cMDH and mMDH were used as ammonium sulfate suspensions. Typically, 5 μl of the enzyme stock solutions were diluted to 10 ml with 30 mM phosphate buffer, pH 7.4, prior to use. The resulting enzyme solutions were stored in ice water; 100 μl aliquots were withdrawn for assay except where another amount is specified.
(§7) The assay is based on conversion of oxalacetic acid to malate in the presence of NADH and MDH. The assay was made [formula] in 30 mM phosphate buffer, at ambient temperature, with and without appropriate surfactant concentrations, and contained 0.17 mM OAA and 0.13 mM NADH. The reaction was followed by monitoring the decrease in absorbance at 340 nm using either a Beckman 25 or Cary 118 spectrophotometer. The OAA solutions were stored over ice to prevent hydrolysis to pyruvic acid.

[6] = molecular target: T2, cMDH (Sus scrofa, UniProt P11708); experiment: Assay for MDH (oxalacetic acid + NADH, 340 nm); format: biochemical, porcine
T2 construct: Porcine cMDH and mMDH were used as ammonium sulfate suspensions
Experimental: as §6, §7

[7] = test system: isoenzymes of creatinine phosphokinase (CPK); experiment: Conventional coupled CPK assay (hexokinase, glucose-6-phosphate dehydrogenase); format: biochemical; details: conventional assay with coupled reactions, hexokinase and glucose-6-phosphate dehydrogenase
Source text: Of course, the particular amphiphile used and the concentration at which it is used will depend upon the particular isoenzyme being assayed. Not every amphiphile will have a discriminatory effect on the activity of isoenzymes in each isoenzyme system.

[8] = molecular target: T3, human LD1 (Homo sapiens, UniProt P07195); experiment: LDH assay with human enzyme-containing serum; format: biochemical; details: 2.5 mM CTAB; pH 7.8; 14% protein
T3 construct: A specific human LDH isoenzyme (obtained from liver homogenate or red blood cell); from tissue; host or cells: human liver homogenate or red blood cell
Experimental: as §1, §2, §3

[9] = molecular target: T4, human LD4 (Homo sapiens, UniProt P00338+P07195); experiment: LDH assay with human enzyme-containing serum; format: biochemical
T4 construct: A specific human LDH isoenzyme (obtained from liver homogenate or red blood cell); from tissue; host or cells: human liver homogenate or red blood cell
Experimental: as §1, §2, §3

[10] = molecular target: T5, human LD5 (Homo sapiens, UniProt P00338); experiment: LDH assay with human enzyme-containing serum; format: biochemical
T5 construct: A specific human LDH isoenzyme (obtained from liver homogenate or red blood cell); from tissue; host or cells: human liver homogenate or red blood cell
Experimental: as §1, §2, §3

[11] = test system: human LD5; experiment: LDH assay with human enzyme-containing serum; format: biochemical; details: pH 7.4; FIG. 15
Experimental: as §1, §2, §3

[12] = molecular target: T6, human LD2 (Homo sapiens, UniProt P00338+P07195); experiment: LDH assay with human enzyme-containing serum; format: biochemical; details: 2.5 mM CTAB; pH 7.8; 14% protein
T6 construct: A specific human LDH isoenzyme (obtained from liver homogenate or red blood cell); from tissue; host or cells: human liver homogenate or red blood cell
Experimental: as §1, §2, §3

[13] = molecular target: T7, LD1 (Sus scrofa, UniProt P00336); experiment: Effect of cationic amphiphiles on the activity of LDH isoenzymes (Table 1); format: biochemical; details: 30 mM sodium phosphate buffer pH 7.4, 25° C.; for pIC50: read-out: Amphiphile conc. Req'd for 50% Inactivation of Specified Isoenzyme (LD1)
Experimental: as §1, §5
A number of cationic amphiphiles were investigated for specific inactivation of LD1 in the presence of LD5 and these compounds are listed in Table 1.

[14] = molecular target: LD5 (Sus scrofa, UniProt P00339); experiment: LDH activity assay with amphiphile, LDH isoenzymes; format: biochemical, porcine; design: LD5 from two different species, i.e., rabbit muscle and hog muscle; from tissue; host or cells: hog muscle
Experimental: as §4, §1, §5

[15] = molecular target: T8, LD4 (Sus scrofa, UniProt P00336+P00339); experiment: LDH activity assay with amphiphile, LDH isoenzymes; format: biochemical, porcine
T8 construct: porcine LDH, LD1, LD2, LD3, LD4 and LD5 in the form of ammonium sulfate suspensions
Experimental: as §4, §1, §5

[16] = molecular target: T9, LD3 (Sus scrofa, UniProt P00336+P00339); experiment: LDH activity assay with amphiphile, LDH isoenzymes; format: biochemical, porcine
T9 construct: porcine LDH, LD1, LD2, LD3, LD4 and LD5 in the form of ammonium sulfate suspensions
Experimental: as §4, §1, §5

[17] = molecular target: T10, LD2 (Sus scrofa, UniProt P00336+P00339); experiment: LDH activity assay with amphiphile, LDH isoenzymes; format: biochemical, porcine
T10 construct: porcine LDH, LD1, LD2, LD3, LD4 and LD5 in the form of ammonium sulfate suspensions
Experimental: as §4, §1, §5

[18] = molecular target: T7, LD1; experiment: LDH activity assay with amphiphile, LDH isoenzymes; format: biochemical, porcine; design: porcine LDH, LD1, LD2, LD3, LD4 and LD5 in the form of ammonium sulfate suspensions
Experimental: as §4, §1, §5

[19] = molecular target: T11, LDH isoenzymes (LD5 in the presence of LD1) (Oryctolagus cuniculus, UniProt P13491); experiment: Anionic amphiphiles tested for specific interaction with LDH isoenzymes (Table 2); format: biochemical
T11 construct: LD1 (LDHB tetramer) only as comparison
Experimental: as §1, §5
A number of anionic amphiphiles were investigated for specific inactivation of LD5 in the presence of LD1 and these compounds are listed in Table 2.

[20] = rate measurements after 2 minutes, FIG. 18
[21] = 2.5 mM CTAB, pH 7.8, 14% protein

CCCCCCCCCCCCCCCC[N+](C)(C)C.[Br-] [CTAB, hexadecyltrimethylammonium bromide]
discrimination of LDH isoenzymes [1]: excellent discriminators | activity of human serum sample containing LD1, LD2 and LD3 [2]: completely inactivated | control LD5 activity lost in CTAB solutions [3]: No more than 30% | LD1 susceptibility to inactivation at high surfactant concentrations [4]: less susceptible to inactivation | remaining activity at 300 µM ([5]; pH 7.4, 0.3 mM CTAB, initial reaction rates, FIG. 16, read-out: mMDH activity relative to a buffer control): 100% | effect on mMDH with increased exposure time [5, 20]: no effect | cMDH activity ([6]; 0.3 mM CTAB, initial reaction rates, FIG. 16): essentially completely inactivated | cMDH inactivation with increased exposure time [6, 20]: more effectively inactivates cMDH | discriminatory effect on the activities of the isoenzymes of CPK [7]: do not appear to have any discriminatory effect | human LD1 activity [8]: completely inactivated | human LD4 activity [9, 21]: fully active | human LD4 activity ([9]; 3 mM CTAB in 14% protein, pH 7.75-7.85, 30 μl serum): completely inactivated | human LD5 activity [10, 21]: fully active | retained activity of human LD5 ([10]; CTAB 0.002-0.004 M, 25 μl serum, FIG. 13): at least 60% | activity at 3000 µM ([10]; read-out: human LD5 activity): > 100% | discrimination between human LD5 and LD4 [11]: inadequate discrimination | human LD2 activity [12]: completely inactivated | pIC50 [13]: 3.05 | activity at 275 µM ([14]; pH 7.4, read-out: activity of LD5 in CTAB, % of the buffer value): 90 to 95%

CCCCCCCCCCCCCCCCCCNC(=O)CC(C(=O)O)S(=O)(=O)O (stereo not shown) [Disodium N-octadecylsulfosuccinamate]
Effectiveness (LDH isoenzyme inhibition specificity, LD1 vs LD5) [1]: ++

CCCCCCCCCCCCN [Dodecylamine . HCl]
Effectiveness (LDH isoenzyme inhibition specificity, LD1 vs LD5) [1]: ++ | pIC50 [13]: 1.89

CCCCCCCCCCCC[N+](C)(C)C.[Br-] [Dodecyltrimethylammonium bromide]
Effectiveness (LDH isoenzyme inhibition specificity, LD1 vs LD5) [1]: - | pIC50 [13]: 2.00

CC[n+]1ccccc1.[Br-] [N-Ethylpyridinium bromide]
Amphiphile conc. Req'd for 50% Inactivation of Specified Isoenzyme (LD1) [13]: no effect

CCCCCCCCCCCCCCCC(=O)NCCC[N+](C)(C)CCO.[Cl-] [N-β-hydroxyethyl-N,N-dimethyl-N-3-palmitamidopropylammonium chloride]
Effectiveness (LDH isoenzyme inhibition specificity, LD1 vs LD5) [1]: ++ | retention of LD4 activity ([15]; FIG. 11): ~ 60% | effect on LD3 activity ([16]; FIG. 11): inactivated mostly | effect on LD2 activity ([17]; FIG. 11): inactivated mostly | effect on LD1 activity ([18]; FIG. 11): inactivated mostly | retention of LD5 activity ([14]; FIG. 11): 90%

CCCCCCCCC[N+](C)(C)C [Nonatrimethylammonium bromide]
Effectiveness (LDH isoenzyme inhibition specificity, LD1 vs LD5) [1]: - | pIC50 [13]: 3.46

CCCCCCCCCCCCOS(=O)(=O)[O-].[Na+] [SDS, sodium dodecylsulfate]
Effectiveness (LDH isoenzyme inhibition specificity, LD1 vs LD5) [1]: ++ | LD4 activity ([15]; 1.5 mM SDS, FIG. 9): nil | remaining activity at 1500 µM ([16]; pH 7.4, read-out: LD3 activity remaining): 50% | activity at 3500 µM ([17]; pH 7.4, read-out: LD2 activity): 0% | remaining activity at 1500 µM ([17]; pH 7.4, read-out: LD2 activity remaining): 65% | Interaction (specific inactivation of LD5 in the presence of LD1) [19]: useful positive results | Interaction (specific inactivation of LD5 in the presence of LD1) ([19]; listed as sodium dodecylsulfate): specific | remaining activity at 1500 µM ([18]; pH 7.4, read-out: LD1 activity remaining): 95% | remaining activity at 3500 µM ([18]; pH 7.4, read-out: LD1 activity, % of buffer control): 78% | LD5 activity ([14]; 1.5 mM SDS, FIG. 9): nil

CCCCCCCC/C=C\CCCCCCCC(=O)N(C)CCS(=O)(=O)O [Sodium N-methyl-N-oleoyl taurate]
Effectiveness (LDH isoenzyme inhibition specificity, LD1 vs LD5) [1]: 0

CCCCOS(=O)(=O)[O-].[Na+] [Sodium butyl sulfate]
Effectiveness (LDH isoenzyme inhibition specificity, LD1 vs LD5) [1]: 0

C[C@H](CCC(=O)O)[C@H]1CC[C@H]2[C@@H]3C(=O)C[C@@H]4CC(=O)CC[C@]4(C)[C@H]3CC(=O)[C@]12C [Sodium dehydrocholate]
Effectiveness (LDH isoenzyme inhibition specificity, LD1 vs LD5) [1]: 0
